# Structures can show the parent of a compound that is named as a salt.
# Legend:
# Experiment in all cases: In vitro enzyme inhibitory activity (Caliper mobility shift, FAM labeled peptide)
# Assay type in all cases: biochemical
# Conditions in all cases: 28° C., 1 h reaction
# EGFR = EGFR (Homo sapiens (Human), UniProt P00533)
# Experimental: (§1) In Vitro Enzyme Inhibitory Activity of the Present Compounds
# EGFR: human epidermal growth factor receptor (Carna);
# (§2) 1. Formulating the agents to be used in the assay
# (§3) (6) 5-fold compound solutions (using 100% DMSO to formulate 50-fold compound solutions having different concentration gradients, and diluting with water by 10 times to obtain 5-fold compound solutions having different concentration gradients);
# (§4) 2. Adding 5 μL of a 5-fold compound solution to a 384-well plate;
# (§5) 3. Adding 10 μL of a 2.5-fold kinase solution to incubate for 10 min;
# (§6) 4. Then adding 10 μL of a 2.5-fold peptide solution, and reacting at 28° C. for 1 h; and
# (§7) 5. Finally, adding 25 μL of stop buffer to terminate the reaction, and reading the data with Caliper.
# (§8) 6. Curve fitting to obtain an IC50 value. The calculated inhibition ratio (%)=(the maximum conversion rate−the conversion rate)/(the maximum conversion rate−the minimum conversion rate)×100
# (§9) The curve fitting was conducted with the Xlfit software to obtain IC50 values.
# HER2 = HER2 (Homo sapiens (Human), UniProt P04626)
# Experimental: as §1
# HER2: human epidermal growth factor receptor 2 (Carna);
# as §2, §3, §4, §5, §6, §7, §8, §9
# HER4 = HER4 (Homo sapiens (Human), UniProt Q15303)
# Experimental: as §1
# HER4: human epidermal growth factor receptor 4 (Carna).
# as §2, §3, §4, §5, §6, §7, §8, §9
# Sequence of EGFR (P00533 25-1210): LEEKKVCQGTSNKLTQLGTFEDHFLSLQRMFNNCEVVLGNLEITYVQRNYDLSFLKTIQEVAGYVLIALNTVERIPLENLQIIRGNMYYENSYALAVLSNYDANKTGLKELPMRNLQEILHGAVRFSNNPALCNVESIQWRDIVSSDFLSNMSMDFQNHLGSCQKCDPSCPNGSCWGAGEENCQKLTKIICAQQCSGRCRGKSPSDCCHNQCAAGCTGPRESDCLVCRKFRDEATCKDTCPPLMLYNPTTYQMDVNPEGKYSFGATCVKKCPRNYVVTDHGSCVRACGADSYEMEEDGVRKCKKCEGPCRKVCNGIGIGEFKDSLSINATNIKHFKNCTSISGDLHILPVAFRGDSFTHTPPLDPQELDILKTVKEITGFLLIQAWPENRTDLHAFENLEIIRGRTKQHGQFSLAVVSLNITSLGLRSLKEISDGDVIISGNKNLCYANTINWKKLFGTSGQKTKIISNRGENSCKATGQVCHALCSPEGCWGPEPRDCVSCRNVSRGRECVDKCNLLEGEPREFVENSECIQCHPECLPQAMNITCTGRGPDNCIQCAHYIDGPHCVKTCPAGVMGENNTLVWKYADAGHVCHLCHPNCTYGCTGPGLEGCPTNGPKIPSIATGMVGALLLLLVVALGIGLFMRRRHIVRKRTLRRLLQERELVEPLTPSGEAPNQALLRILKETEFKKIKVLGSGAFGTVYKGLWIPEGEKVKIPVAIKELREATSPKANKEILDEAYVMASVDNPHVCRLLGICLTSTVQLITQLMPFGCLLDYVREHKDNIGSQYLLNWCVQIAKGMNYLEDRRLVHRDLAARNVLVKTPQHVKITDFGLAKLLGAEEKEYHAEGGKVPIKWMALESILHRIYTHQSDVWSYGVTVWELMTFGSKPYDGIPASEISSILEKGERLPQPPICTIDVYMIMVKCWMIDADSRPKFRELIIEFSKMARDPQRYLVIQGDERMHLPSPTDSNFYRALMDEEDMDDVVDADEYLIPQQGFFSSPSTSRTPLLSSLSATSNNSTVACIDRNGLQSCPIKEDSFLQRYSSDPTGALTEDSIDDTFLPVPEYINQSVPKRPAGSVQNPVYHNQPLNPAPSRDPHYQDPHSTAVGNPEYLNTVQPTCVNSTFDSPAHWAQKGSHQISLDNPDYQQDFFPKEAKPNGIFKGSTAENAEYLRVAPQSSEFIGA
# Sequence of HER2 (P04626 23-1255): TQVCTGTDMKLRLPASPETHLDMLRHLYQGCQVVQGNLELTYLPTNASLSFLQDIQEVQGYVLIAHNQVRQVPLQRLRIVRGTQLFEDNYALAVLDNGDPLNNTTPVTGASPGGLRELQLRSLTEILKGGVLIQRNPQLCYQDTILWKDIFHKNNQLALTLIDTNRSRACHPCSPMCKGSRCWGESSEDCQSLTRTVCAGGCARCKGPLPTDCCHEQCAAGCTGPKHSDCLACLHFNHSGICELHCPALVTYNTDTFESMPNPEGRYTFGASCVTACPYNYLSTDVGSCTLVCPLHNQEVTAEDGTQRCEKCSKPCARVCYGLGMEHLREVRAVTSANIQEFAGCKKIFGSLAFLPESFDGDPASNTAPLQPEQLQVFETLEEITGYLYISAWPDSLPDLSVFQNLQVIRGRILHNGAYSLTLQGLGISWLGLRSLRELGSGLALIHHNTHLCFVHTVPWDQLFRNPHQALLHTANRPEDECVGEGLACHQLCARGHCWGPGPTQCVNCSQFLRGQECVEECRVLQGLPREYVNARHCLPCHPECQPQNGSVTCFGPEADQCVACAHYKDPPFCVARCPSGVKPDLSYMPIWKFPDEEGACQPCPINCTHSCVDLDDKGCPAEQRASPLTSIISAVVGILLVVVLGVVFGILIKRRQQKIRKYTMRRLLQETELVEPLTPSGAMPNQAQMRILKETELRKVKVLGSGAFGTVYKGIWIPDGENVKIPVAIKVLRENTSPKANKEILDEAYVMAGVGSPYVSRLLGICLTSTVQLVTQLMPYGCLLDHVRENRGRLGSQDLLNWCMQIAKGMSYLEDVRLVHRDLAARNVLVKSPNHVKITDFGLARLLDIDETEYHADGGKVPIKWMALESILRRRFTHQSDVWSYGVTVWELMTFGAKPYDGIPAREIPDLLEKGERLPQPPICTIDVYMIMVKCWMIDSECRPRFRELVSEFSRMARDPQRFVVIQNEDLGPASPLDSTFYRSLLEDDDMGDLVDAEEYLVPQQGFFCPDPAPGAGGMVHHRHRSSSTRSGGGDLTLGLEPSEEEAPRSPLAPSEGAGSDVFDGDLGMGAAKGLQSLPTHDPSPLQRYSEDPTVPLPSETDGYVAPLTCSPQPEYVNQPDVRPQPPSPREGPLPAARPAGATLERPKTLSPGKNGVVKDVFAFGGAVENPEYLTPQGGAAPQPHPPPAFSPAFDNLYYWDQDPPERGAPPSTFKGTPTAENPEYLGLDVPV
# Sequence of HER4 (Q15303 26-1308): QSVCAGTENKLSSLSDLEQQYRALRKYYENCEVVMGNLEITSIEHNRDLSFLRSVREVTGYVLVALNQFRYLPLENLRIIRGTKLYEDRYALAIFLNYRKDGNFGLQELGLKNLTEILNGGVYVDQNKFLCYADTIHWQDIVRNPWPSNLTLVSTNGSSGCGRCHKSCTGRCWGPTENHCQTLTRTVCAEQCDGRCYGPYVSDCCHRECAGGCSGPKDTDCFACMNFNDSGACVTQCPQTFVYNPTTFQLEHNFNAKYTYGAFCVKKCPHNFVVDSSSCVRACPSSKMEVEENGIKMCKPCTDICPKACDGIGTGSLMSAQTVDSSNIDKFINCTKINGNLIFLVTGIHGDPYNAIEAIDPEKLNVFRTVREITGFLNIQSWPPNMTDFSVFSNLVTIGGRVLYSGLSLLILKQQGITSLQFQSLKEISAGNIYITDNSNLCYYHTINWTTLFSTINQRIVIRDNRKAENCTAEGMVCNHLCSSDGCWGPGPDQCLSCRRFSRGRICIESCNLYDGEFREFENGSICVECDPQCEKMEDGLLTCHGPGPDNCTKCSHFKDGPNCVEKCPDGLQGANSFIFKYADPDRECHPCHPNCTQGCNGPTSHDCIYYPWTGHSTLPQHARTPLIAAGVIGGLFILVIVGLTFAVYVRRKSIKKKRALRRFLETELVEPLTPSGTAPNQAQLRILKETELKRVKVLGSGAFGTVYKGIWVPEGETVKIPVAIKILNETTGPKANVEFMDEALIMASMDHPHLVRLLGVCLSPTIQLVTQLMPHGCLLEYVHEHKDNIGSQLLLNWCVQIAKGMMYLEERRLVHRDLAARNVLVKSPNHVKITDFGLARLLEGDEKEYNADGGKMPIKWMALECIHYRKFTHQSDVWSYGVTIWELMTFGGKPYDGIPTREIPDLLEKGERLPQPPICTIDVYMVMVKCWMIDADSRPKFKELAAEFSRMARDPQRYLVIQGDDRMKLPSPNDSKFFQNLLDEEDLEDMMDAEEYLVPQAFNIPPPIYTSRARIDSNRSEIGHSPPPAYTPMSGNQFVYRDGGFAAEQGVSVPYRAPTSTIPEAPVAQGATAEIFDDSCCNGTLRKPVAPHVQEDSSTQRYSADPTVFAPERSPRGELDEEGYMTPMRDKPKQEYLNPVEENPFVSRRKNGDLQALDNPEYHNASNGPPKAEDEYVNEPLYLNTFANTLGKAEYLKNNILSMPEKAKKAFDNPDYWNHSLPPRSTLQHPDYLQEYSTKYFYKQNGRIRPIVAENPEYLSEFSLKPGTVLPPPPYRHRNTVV
Compound,IC50 (EGFR) [nM],IC50 (HER2) [nM],IC50 (HER4) [nM]
"C=CC(=O)Nc1cc2c(Nc3ccc(F)c(Cl)c3)ncnc2cc1OCC1COC2(CCN(C)CC2)C1 (stereo not shown) [Compound 6, N-[4-(3-chloro-4-fluorophenylamino)-7-((8-methyl-1-oxa-8-azaspiro[4.5]decan-3-yl)methoxy)quinazolin-6-yl]-acrylamide]",1,7.1,1.4
"C=CC(=O)Nc1cc2c(Nc3ccc(F)c(Cl)c3)ncnc2cc1OCC1CCC2(CCN(C)CC2)O1 (stereo not shown) [Compound 7, N-[4-(3-chloro-4-fluorophenylamino)-7-(8-methyl-1-oxa-8-azaspiro[4.5]decan-2-ylmethoxy)quinazolin-6-yl]-acrylamide]",–,4.3,1.7
C=CC(=O)Nc1cc2c(Nc3ccc(F)c(Cl)c3)ncnc2cc1OCC[C@@H]1[C@H]2CN(C)C[C@@H]12 [Compound 8],–,6.5,3.4
"C=CC(=O)Nc1cc2c(Nc3ccc(F)c(Cl)c3)ncnc2cc1OCCC1C2CCC1CN(C)C2 (stereo not shown) [Compound 11, N-[4-(3-chloro-4-fluorophenylamino)-7-(2-(3-methyl-3-azabicyclo[3.2.1]octan-8-yl)ethoxy)quinazolin-6-yl]-acrylamide]",0.8,12,8.3
"C=CC(=O)Nc1cc2c(Nc3ccc(F)c(Cl)c3)ncnc2cc1OCCC1CC12CCN(C)CC2 (stereo not shown) [Compound 14, N-[4-(3-chloro-4-fluorophenylamino)-7-(2-(6-methyl-6-azaspiro[2.5]octan-1-yl)ethoxy)quinazolin-6-yl]-acrylamide]",0.39,2.6,1.2
"C=CC(=O)Nc1cc2c(Nc3ccc(F)c(Cl)c3)ncnc2cc1OCC1CC2(CCN(C)CC2)C1 [Compound 18, N-[4-(3-chloro-4-fluorophenylamino)-7-((7-methyl-7-azaspiro[3.5]nonan-2-yl)methoxy)quinazolin-6-yl]-acrylamide]",1,6.5,1.9
"C=CC(=O)Nc1cc2c(Nc3ccc(F)c(Cl)c3)ncnc2cc1OCCC1CC2(CCN(C)CC2)C1 [Compound 19 hydrochloride, N-[4-(3-chloro-4-fluorophenylamino)-7-(2-(7-methyl-7-azaspiro[3.5]nonan-2-yl)ethoxy)quinazolin-6-yl]-acrylamide hydrochloride]",0.56,3.1,3.7

# From patent US9730934B2, “Quinazoline derivatives substituted by aniline, preparation method and use thereof” (XUANZHU PHARMA CO., LTD., priority 2010, dated 2017)
